Among the test systems are CAKI-1 renal; T-47D breast; UACC-62 melanoma; MOLT-4 leukemia; BT-549 breast; HCC-2998 colon; IGROV1 ovarian; A498 renal; HOP-62 NSCLC; SNB-75 CNS.
Holding throughout (test): NCI tumour cell line growth inhibition, 48 h

“And” between values parts separate entries of the source, which are not always exact repeats. Equal entries are not always repeated.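 Cultured in 96-well plates, cells were exposed to test compound for 48 hours across five concentrations. Abbreviation: GI50, concentration required for 50% inhibition of growth. TGI marks complete inhibition of growth.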

As for `COc1cccc2c1C(=O)c1c(O)c3c(c(O)c1C2=O)CC(O)(C(=O)CO)CC3OC1CC(N)C(O)C(C)O1` (stereo not drawn), the GI50 was 16.3 µg/mL and 64 µg/mL with CAKI-1 renal; 7.53 µg/mL and 54.8 µg/mL in the assay on T-47D breast; 7.54 µg/mL and 18.6 µg/mL in the assay on UACC-62 melanoma; 1.13 µg/mL and 1.46 µg/mL in the assay on MOLT-4 leukemia; 34.6 µg/mL and 108 µg/mL in the assay on BT-549 breast; 37.2 µg/mL and 26 µg/mL in the assay on HCC-2998 colon. For the same compound, the GI50 in the assay with IGROV1 ovarian is 16.1 µg/mL and 60.1 µg/mL; with A498 renal, 19 µg/mL and 33.8 µg/mL; in the assay with HOP-62 NSCLC, 5.83 µg/mL and 5.96 µg/mL; in the assay on SNB-75 CNS it was 9.12 µg/mL and 51.1 µg/mL. In addition, the TGI in the assay on CAKI-1 renal is 75 µg/mL and > 150 µg/mL; with T-47D breast it was 73.9 µg/mL and > 150 µg/mL; with UACC-62 melanoma it was 27.8 µg/mL and 62 µg/mL; in the assay on BT-549 breast, 75 µg/mL and > 150 µg/mL; in the assay with HCC-2998 colon, 75 µg/mL and 122 µg/mL; with IGROV1 ovarian it was 75 µg/mL and > 150 µg/mL. Besides, the TGI in the assay with A498 renal was 75 µg/mL and > 150 µg/mL; with HOP-62 NSCLC, 75 µg/mL and > 150 µg/mL; with SNB-75 CNS it was 55 µg/mL and > 150 µg/mL.
On to `CN1CCN(Cc2ccc(NC(=O)c3cncc(C#Cc4cnc(N)c5cnccc45)c3)cc2C(F)(F)F)CC1`, for which the GI50 was 0.979 µM in the assay with CAKI-1 renal; 0.41 µM in the assay with T-47D breast; 0.0782 µM in the assay on UACC-62 melanoma; 0.172 µM in the assay with MOLT-4 leukemia; 1.08 µM with BT-549 breast; 0.234 µM in the assay on HCC-2998 colon. Moreover, the GI50 in the assay on IGROV1 ovarian was 0.141 µM; with A498 renal, 0.12 µM; in the assay with HOP-62 NSCLC it was 0.233 µM; in the assay with SNB-75 CNS it was 0.233 µM. For the same compound, the TGI worked out at 6.61 µM with CAKI-1 renal; 9.13 µM with T-47D breast; 0.282 µM with UACC-62 melanoma; 7.49 µM with MOLT-4 leukemia; 7.23 µM with BT-549 breast; 7.12 µM in the assay on HCC-2998 colon. Moreover, the TGI is 0.649 µM in the assay on IGROV1 ovarian, 0.363 µM in the assay on A498 renal, 4.32 µM with HOP-62 NSCLC and 1.71 µM in the assay with SNB-75 CNS.
On to `CN(C)CCNC(=O)NC[C@H]1CC[C@@H]2[C@H](O1)c1cc(C(F)(F)F)ccc1N[C@H]2c1ccccc1`, for which the GI50 with CAKI-1 renal was 4.74 µM; in the assay on T-47D breast, 0.371 µM; with UACC-62 melanoma, 0.276 µM; in the assay with MOLT-4 leukemia it was 0.373 µM; in the assay with BT-549 breast it was 0.389 µM; in the assay with HCC-2998 colon, 0.275 µM. In addition, the GI50 in the assay with IGROV1 ovarian is 0.578 µM; in the assay on A498 renal, 0.196 µM; in the assay with HOP-62 NSCLC, 1.71 µM; in the assay with SNB-75 CNS, 0.32 µM. The TGI was > 68.2 µM in the assay on CAKI-1 renal; 17.8 µM in the assay on T-47D breast; 15.9 µM in the assay on UACC-62 melanoma; 19.6 µM in the assay with MOLT-4 leukemia; 14.7 µM with BT-549 breast; 18.6 µM in the assay with HCC-2998 colon. Also, the TGI in the assay on IGROV1 ovarian was 40.7 µM; in the assay on A498 renal, 10.5 µM; in the assay with HOP-62 NSCLC, 24.1 µM; in the assay on SNB-75 CNS it was 23.4 µM.
As for `C[CH2][Sn]([CH2]C)([O]C(=O)c1ccc(OC)c(OC)c1OC)[O]C(=O)c1ccc(OC)c(OC)c1OC`, the GI50 in the assay with CAKI-1 renal was 14.7 µM; with T-47D breast, 12.7 µM; in the assay with UACC-62 melanoma it was 42.6 µM; in the assay on MOLT-4 leukemia it was 34.1 µM; with BT-549 breast, 17.2 µM; with HCC-2998 colon it was > 100 µM. In addition, the GI50 with IGROV1 ovarian is > 100 µM; with A498 renal, 16.3 µM; with HOP-62 NSCLC it was > 100 µM; in the assay on SNB-75 CNS it was 19.1 µM. The TGI in the assay on CAKI-1 renal is 30.6 µM; in the assay on T-47D breast, 26.1 µM; with UACC-62 melanoma, > 100 µM; in the assay on MOLT-4 leukemia, > 100 µM; in the assay on BT-549 breast, 31.1 µM; in the assay with HCC-2998 colon, > 100 µM. Also, the TGI in the assay on IGROV1 ovarian was > 100 µM; with A498 renal, 44 µM; in the assay on HOP-62 NSCLC, > 100 µM; in the assay with SNB-75 CNS, 62.8 µM.
Turning to `C#Cc1cccc(NC(=O)c2ccc(NC(=O)CCl)cc2)c1`, the GI50 in the assay on CAKI-1 renal was > 82.5 µM; with T-47D breast it was 31.2 µM; with UACC-62 melanoma, 36.9 µM; in the assay with MOLT-4 leukemia, 12.4 µM; in the assay with BT-549 breast it was 11.1 µM; in the assay with HCC-2998 colon it was > 82.5 µM. The GI50 in the assay with IGROV1 ovarian was 10.6 µM; with A498 renal, > 82.5 µM; with HOP-62 NSCLC, 68.3 µM; with SNB-75 CNS it was 17.2 µM. In addition, the TGI in the assay with CAKI-1 renal is > 82.5 µM; in the assay with T-47D breast, > 82.5 µM; in the assay with UACC-62 melanoma it was > 82.5 µM; with MOLT-4 leukemia, 40 µM; in the assay on BT-549 breast, 23.9 µM; with HCC-2998 colon it was > 82.5 µM. Besides, the TGI in the assay with IGROV1 ovarian is 23.7 µM; in the assay with A498 renal it was > 82.5 µM; in the assay with HOP-62 NSCLC, > 82.5 µM; with SNB-75 CNS, > 82.5 µM.
As for `CCCCCC[C@H](C)NC(=O)c1ccc(Nc2nc3ccccc3c3occc23)cc1`, the GI50 was 3.97 µM in the assay with CAKI-1 renal; 1.2 µM in the assay with T-47D breast; 16 µM in the assay on UACC-62 melanoma; 3.4 µM with MOLT-4 leukemia; 2.79 µM in the assay with BT-549 breast; 1.26 µM in the assay with HCC-2998 colon. The GI50 with IGROV1 ovarian is 2.46 µM; in the assay with A498 renal, 2.74 µM; in the assay with HOP-62 NSCLC, 3.39 µM; in the assay with SNB-75 CNS, 3.99 µM. Besides, the TGI in the assay with CAKI-1 renal is 50.5 µM; in the assay with T-47D breast, 6.31 µM; with UACC-62 melanoma it was 35.5 µM; in the assay with MOLT-4 leukemia it was > 100 µM; in the assay on BT-549 breast it was 6.54 µM; in the assay with HCC-2998 colon it was 4.16 µM. The TGI is 5.77 µM with IGROV1 ovarian, 7.54 µM with A498 renal, 12.9 µM with HOP-62 NSCLC and 7.69 µM in the assay on SNB-75 CNS.
Regarding `COc1cccc(Nc2nccc(-c3cnn4ncccc34)n2)c1`, the GI50 in the assay with CAKI-1 renal is 0.0573 µM; in the assay on T-47D breast it was 0.0776 µM; in the assay on UACC-62 melanoma it was 0.0486 µM; in the assay on MOLT-4 leukemia it was 0.078 µM; in the assay on BT-549 breast it was 0.0714 µM; in the assay on HCC-2998 colon, 0.0671 µM. In addition, the GI50 was 0.101 µM with IGROV1 ovarian, 0.0483 µM in the assay with A498 renal, 0.0798 µM in the assay on HOP-62 NSCLC and 0.0463 µM in the assay on SNB-75 CNS. Also, the TGI in the assay on CAKI-1 renal was 3.77 µM; in the assay with T-47D breast, 0.428 µM; in the assay on UACC-62 melanoma, 0.139 µM; with BT-549 breast it was 6.71 µM; with HCC-2998 colon, 0.238 µM; in the assay on IGROV1 ovarian, > 25 µM. The figures for the TGI with A498 renal, in the assay with HOP-62 NSCLC and in the assay on SNB-75 CNS were 0.126 µM, 0.532 µM and 0.122 µM, respectively.

(Values after PubChem BioAssay (NCI).)
